Test results reported in US5066676A, “Sulfonamido derivative inhibiting the aldose reductase enzyme system and pharmaceutical compositions containing them” (Laboratori Baldacci SpA, priority 1987, dated 1991).

How the values were obtained:
[1] = Acute toxicity of ARI 6 in the rat; conditions: in vivo
[2] = test system: diabetic cataract in the rat; test: Action on the appearance of the diabetic cataract (rat); format: in vivo; conditions: for appearance of the diabetic cataract: Table 5, 25 mg/kg/die per os
Procedure: (§1) With the compound bearing the abbreviation ARI 6 the following tests have been carried out in the rat and in the rabbit.
Action on the appearance of the diabetic cataract (rat).
Effects of the administration of ARI 6 (25 mg/kg/die, per os)
on the appearance of the diabetic cataract in the rat.
The values are expressed as percentages. Within brackets there are indicated the animals for each group.
Effects of the administration of ARI-1 (25 mg/kg/die, per os)

aldose reductase = target: T1, aldose reductase (Bos taurus, UniProt P16116); test: In vitro inhibition of aldose reductase activity of raw extracts from bovine crystalline lens; format: biochemical; conditions: glyceraldehyde substrate, NADPH, pH 6.8, 37° C.; read-out: IC50 on the aldose reductase activity of raw extracts originating from bovine crystalline lens
T1 construct: 4 bovine crystalline lenses (8 g) are homogenized by means of Potter in ice bath; from tissue; host or cells: bovine crystalline lens
Procedure: "In vitro" tests have been carried out to evalute the inhibition of the aldose reductase activity, prepared from the extract of bovine crystalline lenses.
PREPARATION OF THE RAW EXTRACTS
4 bovine crystalline lenses (8 g) are homogenized by means of Potter in ice bath with 40 ml of 50 mM phosphate buffer, pH 6.8, containing 2-mercaptoethanol pH ([…]). After centrifugation (12.000×g -20 min-4° C.) the supernatant is brought to 40% saturation with an ammonium sulphate and centrifugated again (14.000×g). The supernatant is then brought to the 80% saturation ((NH4)2 SO4) and, after centrifugation for 20 minutes and at 14.000×g, the sedimented matter is recovered and suspended in 7 ml of phosphate buffer. The enzymatic preparation is dialyzed by ultrafiltration with AMICON ultrafiltration cell.
DOSAGE OF THE ENZYMATIC ACTIVITY
The reference cuvette contains all the several substances apart from the substrate.

rat = test: Toxicity per oral administration repeated in the rat (30 days); format: in vivo; conditions: 30 days, 100, 200, 300 mg/kg/die
From the text: Toxicity per oral administration repeated in the rat (30 days)--Test protocol:
Compound Doses mg/kg/die

[3] = test system: galactosemic cataract in the rat; test: Action on the appearance of the galactosemic cataract (rat); format: in vivo; set-up: appearance of the galactosemic cataract: unit not given here
Procedure: as §1
Action on the appearance of the galactosemic cataract (rat)
Effects of the administration of ARI-6 (5 and 25 mg/kg/die, os)
on the appearance of the galactosemic cataract in the rat.
[…] In the brackets the number of animals for each group is indicated.
The diet contains D-galactose 50%.
Effects of the administration of ARI-1 (5 and 25 mg/kg/die, os)

[4] = Acute toxicity of ARI 6 in the mouse; conditions: in vivo

Structure (SMILES): CN(CC(=O)O)S(=O)(=O)c1ccc2oc3ccc(Cl)cc3c(=O)c2c1 [ARI 6, 7-chloro-2 (N-methyl-N-carboxymethyl) sulfamoylxanthone]
- LD50 ([1]; ip, read-out: Acute toxicity in the rat ip): 1000 mg/kg
- LD50 ([1]; po, per os, read-out: Acute toxicity in the rat per os): 1000 mg/kg
- appearance of the diabetic cataract ([2]; day 5 from streptozotocine): 0.0%
- appearance of the diabetic cataract ([2]; day 10 from streptozotocine): 0.0%
- appearance of the diabetic cataract ([2]; day 15 from streptozotocine): 0.0%
- appearance of the diabetic cataract ([2]; day 20 from streptozotocine): 0.0%
- appearance of the diabetic cataract ([2]; day 25 from streptozotocine): 0.0%
- appearance of the diabetic cataract ([2]; day 30 from streptozotocine): 0.0%
- appearance of the diabetic cataract ([2]; day 35 from streptozotocine): 0.0%
- appearance of the diabetic cataract ([2]; day 40 from streptozotocine): 20.0%
- appearance of the diabetic cataract ([2]; day 45 from streptozotocine): 30.0%
- appearance of the diabetic cataract ([2]; day 50 from streptozotocine): 100.0%
- delay of the appearance of the diabetic cataract ([2]; rat, 25 mg/kg, vs controls): about 30 days
- IC50 (aldose reductase): 9.2 µM
- Microscope and hystomorphological examination (rat): no alteration
- death (rat): No death
- Behaviour and general status (rat; vs control group): no variation with respect to the control group
- Biochemical and hematological parameters (rat; vs controls): no significant variation with respect to the controls
- appearance of the galactosemic cataract ([3]; Table 4, 5 mg/kg/die os, day 5 of diet): 0.0
- appearance of the galactosemic cataract ([3]; Table 4, 5 mg/kg/die os, day 10 of diet): 0.0
- appearance of the galactosemic cataract ([3]; Table 4, 5 mg/kg/die os, day 15 of diet): 0.0
- appearance of the galactosemic cataract ([3]; Table 4, 5 mg/kg/die os, day 20 of diet): 0.0
- appearance of the galactosemic cataract ([3]; Table 4, 5 mg/kg/die os, day 25 of diet): 15.0
- appearance of the galactosemic cataract ([3]; Table 4, 5 mg/kg/die os, day 30 of diet): 20.0
- appearance of the galactosemic cataract ([3]; Table 4, 5 mg/kg/die os, day 35 of diet): 40.0
- appearance of the galactosemic cataract ([3]; Table 4, 5 mg/kg/die os, day 40 of diet): 100.0
- appearance of the galactosemic cataract ([3]; Table 4, 5 mg/kg/die os, day 45 of diet): 100.0
- appearance of the galactosemic cataract ([3]; Table 4, 5 mg/kg/die os, day 50 of diet): 100.0
- appearance of the galactosemic cataract ([3]; Table 4, 25 mg/kg/die os, day 5 of diet): 0.0
- appearance of the galactosemic cataract ([3]; Table 4, 25 mg/kg/die os, day 10 of diet): 0.0
- appearance of the galactosemic cataract ([3]; Table 4, 25 mg/kg/die os, day 15 of diet): 0.0
- appearance of the galactosemic cataract ([3]; Table 4, 25 mg/kg/die os, day 20 of diet): 0.0
- appearance of the galactosemic cataract ([3]; Table 4, 25 mg/kg/die os, day 25 of diet): 0.0
- appearance of the galactosemic cataract ([3]; Table 4, 25 mg/kg/die os, day 30 of diet): 0.0
- appearance of the galactosemic cataract ([3]; Table 4, 25 mg/kg/die os, day 35 of diet): 0.0
- appearance of the galactosemic cataract ([3]; Table 4, 25 mg/kg/die os, day 40 of diet): 15.0
- appearance of the galactosemic cataract ([3]; Table 4, 25 mg/kg/die os, day 45 of diet): 25.0
- appearance of the galactosemic cataract ([3]; Table 4, 25 mg/kg/die os, day 50 of diet): 100.0
- delay for the appearance of the galactosemic cataract ([3]; rat, 5 mg/kg, vs controls): about 20 days
- effect on appearance of the galactosemic cataract (in words) ([3]; rat, higher doses): A more intense effect
- LD50 ([4]; ip, read-out: Acute toxicity in the mouse ip): 1000 mg/kg
- LD50 ([4]; po, per os, read-out: Acute toxicity in the mouse per os): 1000 mg/kg
